# Experimental data published in patent EP0462935B1, “Enantiomers of 2-tetrahydrofuran derivatives, intermediates therefor and their preparation” (SANDOZ AG, priority 1990, dated 1991).
# Structures can show the parent of a compound that is named as a salt.
# Legend:
# [1] = test system: Experimental allergic encephalomyelitis; assay: Experimental allergic encephalomyelitis (EAE test), preventive treatment; format: in vivo, rat; conditions: for Animals with total paralysis) % / Animals with total paralysis) No./total: preventive treatment, 25 mg/kg/day p.o., rat; for Animals with total paralysis) No./total: number of animals with total paralysis per total number of rats treated
# Description: 1. Experimental allergic encephalomyelitis (EAE test) in the rat; preventive treatment:
# [Levine et al., Am. J. Path. 47 (1965) 61; McFarlin et al., J. Immunol. 113 (1974) 712; Borel, Transplant. & Clin. Immunol. 13 (1981) 3]:
# Male Wistar rats are injected in the hind paws with 0.1 ml of a mixture of bovine spinal cord and complete Freund's adjuvant. The test compound is administered at dosages of from 5 to 50 mg/kg/day p.o. 5 days a week, commencing on the day of sensitization and continuing for 2 weeks. Onset of EAE in control groups receiving no medication generally commences between 9 to 16 days after sensitization and is marked by symptoms of paralysis in the hind limbs and tail. Test animals are examined daily for symptoms of the disease and disease occurrence is scored according to their severity. Total paralysis means complete involvement of both hind legs and tail. The test animals are kept under observation for a total period of 50 days.
# [2] = test system: Chronic relapsing experimental allergic encephalomyelitis; assay: Chronic relapsing experimental allergic encephalomyelitis (CR-EAE test), therapeutic treatment; format: in vivo, rat; conditions: 5 to 50 mg/kg/day p.o. for 16 days starting on day 16; for protective efficacy: during treatment and following discontinuation of drug; for inhibiting the appearance of mild to severe clinical symptoms: for the period of treatment
# [3] = test system: Meth A fibrosarcoma; assay: In vivo Meth A fibrosarcoma test; design: species or system mouse; conditions: for Tumor volume (% of control) day 7: day 7 after tumor implantation; for Survivors (tumor free): ten CBF₁ mice
# Description: In vivo Meth A fibrosarcoma test in the mouse:
# Ten CBF₁ mice of 10-12 week age are each implanted with 7.3 x 10⁶ Meth A sarcoma cells to serve as control. A second group of ten CBF₁ mice are each implanted with 7.3 x 10⁶ Meth A sarcoma cells and on day one after implant each mouse is treated p.o. with from 5 »g to 50 »g of the test compound per day for a total of twenty or twenty-seven days. Tumor growth and survivors are assayed on days 7, 14, 21 and 28 after tumor implantation.
# [4] = test system: P815; assay: Tumor cell cytotoxicity test (TCC test); format: cell-based; conditions: 72 hours
# Description: (§1) 1. Tumor cell cytotoxicity test (TCC test):
# (§2) In flat bottom microtiter plates (Nunc Roskieide, Denmark) are placed Abelson 8.1 lymphoma, YAC-1, L1210 or P815 tumor cells in Dulbecco modified Eagle's medium (DMEM) + 10 % fetal calf serum and the tumor cell-containing plates are incubated with 1, 3 and 5 »g of the test compound for a period of 6 to 72 hours. The number of viable tumor cells present in the Abelson 8.1, YAC-1, L1210 and P815 assays is determined by measuring the alkaline phosphatase in the following manner: the tumor cell plates are centrifuged (500 x g) for ten minutes and the supernatant flicked off. Without further washing, 100 »l of buffer containing 20 »l of diethanolamine, 2 »M of MgCl₂·6H₂O, 2.5 »M of p-nitrophenylphosphate and 10 mg Triton X-100 are added. The samples are incubated for 60 minutes at room temperature and the enzymatic reaction is terminated by the addition of 100 »l of 0.5 N NaOH. The absorbance is then measured at […] using a Titertek Multiskan apparatus.
# (§3) At an incubation period of 72 hours the following results were obtained: […]
# [5] = test system: Abelson 8.1 lymphoma; assay: Tumor cell cytotoxicity test (TCC test); format: cell-based; conditions: 72 hours
# Description: as §1, §2, §3
# [6] = test system: YAC-1; assay: Tumor cell cytotoxicity test (TCC test); format: cell-based; conditions: 72 hours
# Description: as §1, §2, §3
# [7] = test system: L1210; assay: Tumor cell cytotoxicity test (TCC test); format: cell-based; conditions: 72 hours
# Description: as §1, §2, §3
# [8] = test system: Delayed-type hypersensitivity; assay: Delayed-type hypersensitivity (DTH test) mediated by cloned helper T cells; format: in vivo, mouse; conditions: footpad swelling after 24 h
# Description: 4. Delayed-type hypersensitivity (DTH test) in the mouse:
# Suppression of DTH mediated by cloned helper T cells is tested with mice injected subcutaneously with cloned helper T cells together with the relevant antigen, namely sheep erythrocytes, in one hind footpad and with the same clone plus an unrelated antigen as control in the other footpad. The drugs are administered orally twice, first one day before and again at the time of the cell injection. After 24 h the increase in footpad thickness is measured. Footpad swelling is indicated as percentage compared with the control group (placebo).
# [9] = test system: Experimental allergic encephalomyelitis; assay: Experimental allergic encephalomyelitis (EAE test), therapeutic treatment; format: in vivo, rat
# Description: 2. Experimental allergic encephalomyelitis (EEA test) in the rat; therapeutic treatment:
# Testing is carried out analogously to that described above with the exception that the administration of the test compound commences on day 7 after sensitization (i.e. immediately prior to appearance of disease symptoms) at dosages of from 5 to 50 mg/kg/day p.o. either daily or every second day and continuing for one week. During the testing period the animals are examined daily for symptoms of the disease and scored as in the previous test method.
smiles,measurement,setting,value
"CCCCCCCCCCCCCCCCCCOC[C@]1(COP(=O)([O-])OCC[N+](C)(C)C)CCCO1 [Enantiomer of the compound of formula I, (S)-2-[(2-Octadecyloxymethyltetrahydrofuran-2-ylmethoxy)-hydroxyphosphinyloxy)-N,N,N-trimethylethanaminium hydroxide inner salt-4-oxide]",Animals with total paralysis) %,[1],86%
same,Animals with total paralysis) No./total,[1],12/14
same,protective efficacy,[2],much less effective protective efficacy during treatment
same,Tumor volume (% of control) day 7,[3]; 5 »g per mouse per day p.o.,66 % of control
same,Tumor volume (% of control) day 14,[3]; 5 »g per mouse per day p.o.,19 % of control
same,Tumor volume (% of control) day 21,[3]; 5 »g per mouse per day p.o.,6 % of control
same,Tumor volume (% of control) day 28,[3]; 5 »g per mouse per day p.o.,11 % of control
same,Survivors (tumor free),[3]; 5 »g per mouse per day p.o.,8/10
same,Survivors (tumor free),"[3]; 5 »g per mouse per day p.o., listed as (S)-isomer",8 out of 10
same,Tumor volume (% of control) day 7,[3]; 50 »g per mouse per day p.o.,70 % of control
same,Tumor volume (% of control) day 14,[3]; 50 »g per mouse per day p.o.,28 % of control
same,Tumor volume (% of control) day 21,[3]; 50 »g per mouse per day p.o.,8 % of control
same,Tumor volume (% of control) day 28,[3]; 50 »g per mouse per day p.o.,13 % of control
same,Survivors (tumor free),[3]; 50 »g per mouse per day p.o.,8/10
same,Inhibition with tumor cells (%) P815,[4]; 1 »g/ml,84%
same,Inhibition with tumor cells (%) P815,[4]; 3 »g/ml,93%
same,Inhibition with tumor cells (%) P815,[4]; 5 »g/ml,97%
same,Inhibition with tumor cells (%) Abelson 8.1,[5]; 1 »g/ml,91%
same,Inhibition with tumor cells (%) Abelson 8.1,[5]; 3 »g/ml,98%
same,Inhibition with tumor cells (%) Abelson 8.1,[5]; 5 »g/ml,98%
same,Inhibition with tumor cells (%) YAC-1,[6]; 1 »g/ml,40%
same,Inhibition with tumor cells (%) YAC-1,[6]; 3 »g/ml,78%
same,Inhibition with tumor cells (%) YAC-1,[6]; 5 »g/ml,91%
same,Inhibition with tumor cells (%) L1210,[7]; 1 »g/ml,45%
same,Inhibition with tumor cells (%) L1210,[7]; 3 »g/ml,92%
same,Inhibition with tumor cells (%) L1210,[7]; 5 »g/ml,97%
same,Suppression of DTH (%),[8]; 2 x 40 mg/kg orally,16%
same,Suppression of DTH (%),[8]; 2 x 80 mg/kg orally,40%
"CCCCCCCCCCCCCCCCCCOCC1(COP(=O)([O-])OCC[N+](C)(C)C)CCCO1 (racemic) [Example 5 of USP 4'673'672, reference compound]",Animals with total paralysis) %,[1],43%
same,Animals with total paralysis) No./total,[1],3/7
same,Tumor volume (% of control) day 7,[3]; 5 »g per mouse per day p.o.,82 % of control
same,Tumor volume (% of control) day 14,[3]; 5 »g per mouse per day p.o.,47 % of control
same,Tumor volume (% of control) day 21,[3]; 5 »g per mouse per day p.o.,20 % of control
same,Tumor volume (% of control) day 28,[3]; 5 »g per mouse per day p.o.,32 % of control
same,Survivors (tumor free),[3]; 5 »g per mouse per day p.o.,3/10
same,Tumor volume (% of control) day 7,[3]; 50 »g per mouse per day p.o.,76 % of control
same,Tumor volume (% of control) day 14,[3]; 50 »g per mouse per day p.o.,38 % of control
same,Tumor volume (% of control) day 21,[3]; 50 »g per mouse per day p.o.,14 % of control
same,Tumor volume (% of control) day 28,[3]; 50 »g per mouse per day p.o.,21 % of control
same,Survivors (tumor free),[3]; 50 »g per mouse per day p.o.,6/10
same,Inhibition with tumor cells (%) P815,[4]; 1 »g/ml,40%
same,Inhibition with tumor cells (%) P815,[4]; 3 »g/ml,87%
same,Inhibition with tumor cells (%) P815,[4]; 5 »g/ml,95%
same,Inhibition with tumor cells (%) Abelson 8.1,[5]; 1 »g/ml,68%
same,Inhibition with tumor cells (%) Abelson 8.1,[5]; 3 »g/ml,97%
same,Inhibition with tumor cells (%) Abelson 8.1,[5]; 5 »g/ml,98%
same,Inhibition with tumor cells (%) YAC-1,[6]; 1 »g/ml,19%
same,Inhibition with tumor cells (%) YAC-1,[6]; 3 »g/ml,74%
same,Inhibition with tumor cells (%) YAC-1,[6]; 5 »g/ml,91%
same,Inhibition with tumor cells (%) L1210,[7]; 1 »g/ml,0%
same,Inhibition with tumor cells (%) L1210,[7]; 3 »g/ml,80%
same,Inhibition with tumor cells (%) L1210,[7]; 5 »g/ml,91%
same,Suppression of DTH (%),[8]; 2 x 40 mg/kg orally,31%
same,Suppression of DTH (%),[8]; 2 x 80 mg/kg orally,88%
same,Animals with EAE) %,"[9]; therapeutic treatment from day 7, 25 mg/kg/day p.o., rat",29%
same,Animals with EAE) No./total,"[9]; therapeutic treatment from day 7, 25 mg/kg/day p.o., rat, number of animals with symptoms of disease per total number of rats treated",2/7
CCCCCCCCCCCCCCCCCCOCC1(COP(=O)([O-])OCC[N+](C)(C)C)CCCO1 (racemic) [compound of Example 5 of USP 4'673'672],inhibiting the appearance of mild to severe clinical symptoms,[2],effective
"CCCCCCCCCCCCCCCCCCOC[C@@]1(COP(=O)([O-])OCC[N+](C)(C)C)CCCO1 [Compound of formula I, (R)-2-[(2-Octadecyloxymethyltetrahydrofuran-2-ylmethoxy)-hydroxyphosphinyloxy]-N,N,N-trimethylethanaminium hydroxide inner salt-4-oxide]",occurrence of clinical symptoms,"[1]; 5 to 50 mg/kg/day p.o. 5 days a week for 2 weeks, versus placebo control groups",substantial reduction of occurrence of clinical symptoms
same,Animals with total paralysis) %,[1],36%
same,Animals with total paralysis) No./total,[1],5/14
same,protective efficacy,[2],effective to fully protect all animals both during treatment and following discontinuation of drug
same,inhibiting the appearance of mild to severe clinical symptoms,[2],effective
same,Tumor volume (% of control) day 7,[3]; 5 »g per mouse per day p.o.,90 % of control
same,Tumor volume (% of control) day 14,[3]; 5 »g per mouse per day p.o.,52 % of control
same,Tumor volume (% of control) day 21,[3]; 5 »g per mouse per day p.o.,21 % of control
same,Tumor volume (% of control) day 28,[3]; 5 »g per mouse per day p.o.,37 % of control
same,Survivors (tumor free),[3]; 5 »g per mouse per day p.o.,2/10
same,Tumor volume (% of control) day 7,[3]; 50 »g per mouse per day p.o.,85 % of control
same,Tumor volume (% of control) day 14,[3]; 50 »g per mouse per day p.o.,53 % of control
same,Tumor volume (% of control) day 21,[3]; 50 »g per mouse per day p.o.,21 % of control
same,Tumor volume (% of control) day 28,[3]; 50 »g per mouse per day p.o.,32 % of control
same,Survivors (tumor free),[3]; 50 »g per mouse per day p.o.,3/10
same,Inhibition with tumor cells (%) P815,[4]; 1 »g/ml,32%
same,Inhibition with tumor cells (%) P815,[4]; 3 »g/ml,80%
same,Inhibition with tumor cells (%) P815,[4]; 5 »g/ml,97%
same,Inhibition with tumor cells (%) Abelson 8.1,[5]; 1 »g/ml,29%
same,Inhibition with tumor cells (%) Abelson 8.1,[5]; 3 »g/ml,93%
same,Inhibition with tumor cells (%) Abelson 8.1,[5]; 5 »g/ml,95%
same,Inhibition with tumor cells (%) YAC-1,[6]; 1 »g/ml,8%
same,Inhibition with tumor cells (%) YAC-1,[6]; 3 »g/ml,86%
same,Inhibition with tumor cells (%) YAC-1,[6]; 5 »g/ml,96%
same,Inhibition with tumor cells (%) L1210,[7]; 1 »g/ml,16%
same,Inhibition with tumor cells (%) L1210,[7]; 3 »g/ml,76%
same,Inhibition with tumor cells (%) L1210,[7]; 5 »g/ml,87%
same,Suppression of DTH (%),[8]; 2 x 40 mg/kg orally,73%
same,Suppression of DTH (%),[8]; 2 x 80 mg/kg orally,88%
same,appearance of EAE disease symptoms,"[9]; 5 to 50 mg/kg/day p.o. from day 7 for one week, versus placebo control groups",substantial reduction of appearance of EAE disease symptoms
